Our source for the IC50 values is patent publication US10660877B2 (BRISTOL-MYERS SQUIBB COMPANY, priority 2016, dated 2020).

In one experiment the target is human TLR7 (Homo sapiens (Human), UniProt Q9NYK1). Description: TLR7 inhibition reporter assay (HEK-Blue cells, SEAP reporter, gardiquimod stimulation). Format: cell-based. (Reporter assays use an easily measured gene product as a stand-in for the process of interest.)
The target in another experiment is human TLR8 (Homo sapiens (Human), UniProt Q9NR97). Nature of the experiment: TLR8 inhibition reporter assay (HEK-Blue cells, SEAP reporter, R848 stimulation).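 Note: compounds tested from 0.05 nM to 50 µM, 22 h at 37 °C, SEAP measured with HEK-Blue Detection, inhibition relative to agonist plus DMSO versus a known inhibitor.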
human TLR8, sequence (Q9NR97 27-1041): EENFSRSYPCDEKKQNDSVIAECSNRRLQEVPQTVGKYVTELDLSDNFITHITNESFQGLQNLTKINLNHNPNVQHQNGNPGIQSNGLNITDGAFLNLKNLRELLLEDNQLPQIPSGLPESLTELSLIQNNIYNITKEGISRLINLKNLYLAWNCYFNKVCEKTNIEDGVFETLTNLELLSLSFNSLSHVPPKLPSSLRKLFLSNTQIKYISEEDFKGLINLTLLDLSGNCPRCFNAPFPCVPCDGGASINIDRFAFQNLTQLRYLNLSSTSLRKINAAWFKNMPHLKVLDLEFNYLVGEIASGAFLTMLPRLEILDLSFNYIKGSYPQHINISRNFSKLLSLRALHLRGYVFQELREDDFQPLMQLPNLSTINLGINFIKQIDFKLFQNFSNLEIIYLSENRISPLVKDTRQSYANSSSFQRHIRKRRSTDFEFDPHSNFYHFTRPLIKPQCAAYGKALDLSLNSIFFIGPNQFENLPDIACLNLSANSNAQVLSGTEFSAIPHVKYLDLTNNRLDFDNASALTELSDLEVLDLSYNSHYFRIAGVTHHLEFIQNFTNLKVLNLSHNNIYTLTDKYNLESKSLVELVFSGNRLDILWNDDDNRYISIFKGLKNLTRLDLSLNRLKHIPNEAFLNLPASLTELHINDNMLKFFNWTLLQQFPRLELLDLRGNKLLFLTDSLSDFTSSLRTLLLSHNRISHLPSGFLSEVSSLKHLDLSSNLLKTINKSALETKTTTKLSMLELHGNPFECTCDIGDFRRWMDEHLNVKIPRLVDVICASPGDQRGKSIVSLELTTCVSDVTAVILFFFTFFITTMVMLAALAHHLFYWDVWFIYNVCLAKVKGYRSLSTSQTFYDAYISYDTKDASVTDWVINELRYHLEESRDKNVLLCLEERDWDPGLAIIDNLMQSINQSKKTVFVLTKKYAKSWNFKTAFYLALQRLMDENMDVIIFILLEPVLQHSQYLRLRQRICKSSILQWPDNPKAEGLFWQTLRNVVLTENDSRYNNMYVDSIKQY
The target of a further experiment is human TLR9 (Homo sapiens (Human), UniProt Q9NR96). Description: TLR9 inhibition reporter assay (HEK-Blue cells, SEAP reporter, ODN2006 stimulation).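 Note: compounds tested over 0.05 nM to 50 µM, 22 h incubation, inhibition taken as SEAP signal drop from agonist plus DMSO wells toward a known inhibitor control.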
human TLR9, sequence (Q9NR96 26-1032): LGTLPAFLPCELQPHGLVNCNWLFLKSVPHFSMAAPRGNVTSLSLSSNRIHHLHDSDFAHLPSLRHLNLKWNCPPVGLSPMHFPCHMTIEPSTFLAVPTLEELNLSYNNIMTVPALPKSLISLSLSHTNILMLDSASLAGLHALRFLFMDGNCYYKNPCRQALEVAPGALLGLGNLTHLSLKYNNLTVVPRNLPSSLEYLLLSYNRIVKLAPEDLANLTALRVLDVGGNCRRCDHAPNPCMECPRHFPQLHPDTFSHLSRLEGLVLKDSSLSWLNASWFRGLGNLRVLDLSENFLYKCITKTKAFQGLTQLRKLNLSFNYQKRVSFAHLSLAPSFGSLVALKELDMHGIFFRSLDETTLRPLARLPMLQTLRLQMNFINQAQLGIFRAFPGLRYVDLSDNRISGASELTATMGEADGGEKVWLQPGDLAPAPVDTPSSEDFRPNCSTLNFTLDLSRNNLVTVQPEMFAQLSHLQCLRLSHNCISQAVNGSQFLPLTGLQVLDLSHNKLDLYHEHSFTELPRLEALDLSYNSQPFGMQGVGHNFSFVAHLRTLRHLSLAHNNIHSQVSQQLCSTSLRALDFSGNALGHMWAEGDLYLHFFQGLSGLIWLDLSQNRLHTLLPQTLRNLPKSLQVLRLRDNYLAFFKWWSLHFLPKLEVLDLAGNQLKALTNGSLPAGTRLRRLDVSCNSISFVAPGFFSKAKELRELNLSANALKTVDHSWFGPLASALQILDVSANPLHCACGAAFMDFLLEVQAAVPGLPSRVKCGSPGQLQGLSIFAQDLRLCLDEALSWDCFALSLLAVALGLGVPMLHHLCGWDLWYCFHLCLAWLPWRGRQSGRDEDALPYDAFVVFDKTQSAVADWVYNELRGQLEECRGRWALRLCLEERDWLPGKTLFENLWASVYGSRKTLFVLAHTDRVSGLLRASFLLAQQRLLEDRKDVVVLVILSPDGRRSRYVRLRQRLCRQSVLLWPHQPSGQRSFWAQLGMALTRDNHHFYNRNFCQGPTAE
The mark [1] stands for this setting: HEK-Blue cells overexpressing human TLR7, gardiquimod 7.5 μM.
[2] abbreviates: read-out: TLR8 IC50, HEK-Blue cells overexpressing human TLR8, R848 15.9 μM.
The mark [3] stands for this setting: read-out: TLR9 IC50, HEK-Blue cells overexpressing human TLR9, ODN2006 5 nM.

Like-named read-outs stand apart in the source and are kept apart here.

human TLR7, sequence (Q9NYK1 27-1049): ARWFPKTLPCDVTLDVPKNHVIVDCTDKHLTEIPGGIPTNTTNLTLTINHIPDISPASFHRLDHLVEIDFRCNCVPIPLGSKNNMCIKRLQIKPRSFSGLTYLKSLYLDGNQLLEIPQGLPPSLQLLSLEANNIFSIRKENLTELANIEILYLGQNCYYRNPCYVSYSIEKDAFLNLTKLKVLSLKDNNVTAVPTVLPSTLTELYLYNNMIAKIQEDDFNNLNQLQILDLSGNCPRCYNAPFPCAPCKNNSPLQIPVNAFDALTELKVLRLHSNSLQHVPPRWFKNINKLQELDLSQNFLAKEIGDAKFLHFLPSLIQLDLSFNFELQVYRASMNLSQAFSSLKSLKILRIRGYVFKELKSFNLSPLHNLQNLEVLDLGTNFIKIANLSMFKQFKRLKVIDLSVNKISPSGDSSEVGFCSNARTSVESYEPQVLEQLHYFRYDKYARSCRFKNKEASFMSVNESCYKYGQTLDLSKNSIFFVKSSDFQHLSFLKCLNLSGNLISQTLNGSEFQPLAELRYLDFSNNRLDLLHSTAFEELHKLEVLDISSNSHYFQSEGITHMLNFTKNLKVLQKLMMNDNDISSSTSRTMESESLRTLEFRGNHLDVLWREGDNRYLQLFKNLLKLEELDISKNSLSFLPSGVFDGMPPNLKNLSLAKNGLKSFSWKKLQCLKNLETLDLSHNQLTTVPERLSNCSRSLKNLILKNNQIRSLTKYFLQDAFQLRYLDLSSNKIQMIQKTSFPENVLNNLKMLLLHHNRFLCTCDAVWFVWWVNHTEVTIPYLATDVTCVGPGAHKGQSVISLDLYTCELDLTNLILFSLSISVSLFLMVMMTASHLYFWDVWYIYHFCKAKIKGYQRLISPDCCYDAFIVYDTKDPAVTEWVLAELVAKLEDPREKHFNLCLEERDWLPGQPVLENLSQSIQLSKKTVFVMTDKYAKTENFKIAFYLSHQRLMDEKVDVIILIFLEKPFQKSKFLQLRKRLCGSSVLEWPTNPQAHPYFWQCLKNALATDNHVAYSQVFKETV

`COc1cc(-c2[nH]c3ccc(C4CCN(C5CCN(C6CCCC6)CC5)CC4)cc3c2C(C)C)ccn1` [Example 802, 5-(1′-cyclopentyl-[1,4′-bipiperidin]-4-yl)-3-isopropyl-2-(2-methoxypyridin-4-yl)-1H-indole]: the IC50 came to 0.389 µM on human TLR7 (setting [1]), 0.0993 µM at human TLR8 (setting [2]) and 0.487 µM on human TLR9 (setting [3]).
As for `CCc1c(-c2ccnc(C)c2)[nH]c2ccc(C3CCN(C(=O)C4CCNCC4)CC3)cc12` [Example 625, (4-(3-ethyl-2-(2-methylpyridin-4-yl)-1H-indol-5-yl)piperidin-1-yl)(piperidin-4-yl)methanone], the IC50 was 0.0845 µM against human TLR7 (setting [1]), 0.0835 µM on human TLR8 (setting [2]) and 0.177 µM at human TLR9 (setting [3]).
Take `Cc1cc(-c2[nH]c3ccc(C4CCN(CC(=O)N5CCCCC5C)CC4)cc3c2C(C)C)cc(C)n1` (stereo not drawn) [Example 270, 2-(4-(2-(2,6-dimethylpyridin-4-yl)-3-isopropyl-1H-indol-5-yl)piperidin-1-yl)-1-(2-methylpiperidin-1-yl)ethan-1-one]: the figures for the IC50 against human TLR7 (setting [1]), at human TLR8 (setting [2]) and at human TLR9 (setting [3]) were 0.0064 µM, 0.0155 µM and 0.192 µM, respectively.
For the compound `COc1cc(-c2[nH]c3ccc(C4CCN(C(=O)CN(C)C)CC4)cc3c2C(C)C)ccn1` [Example 521, 2-(dimethylamino)-1-(4-(3-isopropyl-2-(2-methoxypyridin-4-yl)-1H-indol-5-yl)piperidin-1-yl)ethan-1-one], the concentration for half-maximal inhibition (IC50) at human TLR7 (setting [1]) worked out at 0.0416 µM; at human TLR8 (setting [2]) it was 0.115 µM; on human TLR9 (setting [3]), 3.71 µM.
`Cc1nccc(-c2[nH]c3ccc(C4CCN(C5CCOCC5)CC4)cc3c2C(C)C)c1C` [Example 716, 2-(2,3-dimethylpyridin-4-yl)-3-isopropyl-5-(1-(tetrahydro-2H-pyran-4-yl)piperidin-4-yl)-1H-indole]: the IC50 against human TLR7 (setting [1]) is 0.144 µM; at human TLR8 (setting [2]), 0.0733 µM; on human TLR9 (setting [3]) it was 1.91 µM.
The like results for `Cc1cc(-c2[nH]c3ccc(C4CCN(CC(=O)N(C)C)CC4)cc3c2C(C)C)c(Cl)c(C)n1` [Example 644, 2-(4-(2-(3-chloro-2,6-dimethylpyridin-4-yl)-3-isopropyl-1H-indol-5-yl)piperidin-1-yl)-N,N-dimethylacetamide] were, in that order, 0.0077 µM, 0.006 µM and 2.3 µM.
With `Cc1cc(-c2[nH]c3ccc(C4CCNCC4)cc3c2C(C)C)c(F)c(C)n1` [Example 51, 2-(3-fluoro-2,6-dimethylpyridin-4-yl)-3-isopropyl-5-(piperidin-4-yl)-1H-indole], the half-inhibitory concentration (IC50) is 0.001 µM against human TLR7 (setting [1]), 0.0025 µM on human TLR8 (setting [2]) and 0.775 µM at human TLR9 (setting [3]).
`Cc1cc(-c2[nH]c3ccc(C4CCN(C(=O)CNCC(C)(C)N5CCOCC5)CC4)cc3c2C(C)C)cc(C)n1` [Example 371, 1-(4-(2-(2,6-dimethylpyridin-4-yl)-3-isopropyl-1H-indol-5-yl)piperidin-1-yl)-2-((2-methyl-2-morpholinopropyl)amino)ethan-1-one]: the IC50 at human TLR7 (setting [1]) was 0.0037 µM; on human TLR8 (TLR8 IC50, HEK-Blue cells overexpressing human TLR8, R848 15.9 μM), 0.0204 µM; against human TLR9 (TLR9 IC50, HEK-Blue cells overexpressing human TLR9, ODN2006 5 nM), 0.241 µM.
`CC(C)c1c(-c2cc(C3CC3)ncc2F)[nH]c2ccc(C3CCN(C(=O)C4CC(=O)N(C)C4)CC3)cc12` (stereo not drawn) [Example 517, 4-(4-(2-(2-cyclopropyl-5-fluoropyridin-4-yl)-3-isopropyl-1H-indol-5-yl)piperidine-1-carbonyl)-1-methylpyrrolidin-2-one]: the IC50 was 0.144 µM against human TLR7 (setting [1]), 1.15 µM on human TLR8 (setting [2]) and above 50 µM at human TLR9 (setting [3]).
Consider `Cc1cc(-c2[nH]c3ccc(C4CCN(C5CCN(C(C)C)CC5)CC4)cc3c2C)cc(C)n1` [Example 813, 2-(2,6-dimethylpyridin-4-yl)-5-(1′-isopropyl-[1,4′-bipiperidin]-4-yl)-3-methyl-1H-indole], for which the IC50 on human TLR7 (HEK-Blue cells, gardiquimod 7.5 μM) was 0.533 µM; on human TLR8 (read-out: TLR8 IC50, HEK-Blue cells, R848 15.9 μM), 0.114 µM; at human TLR9 (read-out: TLR9 IC50, HEK-Blue cells, ODN2006 5 nM), 0.042 µM.
Regarding `Cc1ccc(CN2CCC(c3ccc4[nH]c(-c5cc(C)nc(C)c5)c(C(C)C)c4c3)CC2)cn1` [Example 437, 2-(2,6-dimethylpyridin-4-yl)-3-isopropyl-5-(1-((6-methylpyridin-3-yl)methyl)piperidin-4-yl)-1H-indole], the concentration for half-maximal inhibition (IC50) was 0.0086 µM on human TLR7 (setting [1]), 0.0067 µM on human TLR8 (setting [2]) and 0.267 µM on human TLR9 (setting [3]).
The like results for `CNCCC(=O)N1CCC(c2ccc3[nH]c(-c4ccnc(C)c4)c(C(C)C)c3c2)CC1` [Example 570, 1-(4-(3-isopropyl-2-(2-methylpyridin-4-yl)-1H-indol-5-yl)piperidin-1-yl)-3-(methylamino)propan-1-one] were, in that order, 0.0131 µM, 0.012 µM and 0.971 µM.
The matching figures for `CC(C)c1c(-c2ccncc2)[nH]c2ccc(C3CCN(C(=O)CN(C)C)CC3)cc12` [Example 524, 2-(dimethylamino)-1-(4-(3-isopropyl-2-(pyridin-4-yl)-1H-indol-5-yl)piperidin-1-yl) ethan-1-one]: 0.0336 µM, 0.0292 µM and 2.81 µM.
The like results for `CCS(=O)(=O)N1CCC(c2ccc3[nH]c(-c4ccnc(C)c4)c(C(C)C)c3c2)CC1` [Example 549, 5-(1-(ethylsulfonyl)piperidin-4-yl)-3-isopropyl-2-(2-methylpyridin-4-yl)-1H-indole] were, in that order, 0.0556 µM, 0.164 µM and above 50 µM.
For `Cc1cc(-c2[nH]c3ccc(C4CCN(Cc5nnn[nH]5)CC4)cc3c2C(C)C)c(F)cn1` [Example 696, 5-(1-((1H-tetrazol-5-yl)methyl)piperidin-4-yl)-2-(5-fluoro-2-methylpyridin-4-yl)-3-isopropyl-1H-indole], the IC50 at human TLR7 (setting [1]) was 0.408 µM; at human TLR8 (setting [2]), 0.104 µM; at human TLR9 (setting [3]), above 50 µM.
As to `Cc1cc(-c2[nH]c3ccc(C4CCN(S(=O)(=O)CC(F)(F)F)CC4)cc3c2C(C)C)ccn1` [Example 546, 3-isopropyl-2-(2-methylpyridin-4-yl)-5-(1-((2,2,2-trifluoroethyl)sulfonyl)piperidin-4-yl)-1H-indole], the IC50 against human TLR7 (setting [1]) is 0.164 µM; on human TLR8 (setting [2]), 0.82 µM; on human TLR9 (setting [3]) it was above 50 µM.
As to `Cc1cc(-c2[nH]c3ccc(C4CCN(C(=O)CN5C(=O)CN(C)C5=O)CC4)cc3c2C(C)C)cc(C)n1` [Example 160, 3-(2-(4-(2-(2,6-dimethylpyridin-4-yl)-3-isopropyl-1H-indol-5-yl)piperidin-1-yl)-2-oxoethyl)-1-methylimidazolidine-2,4-dione], the values for the IC50 against human TLR7 (setting [1]), on human TLR8 (setting [2]) and at human TLR9 (setting [3]) were 0.0071 µM, 0.0358 µM and above 50 µM, respectively.
The like results for `Cc1cc(-c2[nH]c3ccc(C4CCN(C(=O)CS(C)(=O)=O)CC4)cc3c2C(C)C)ccn1` [Example 608, 1-(4-(3-isopropyl-2-(2-methylpyridin-4-yl)-1H-indol-5-yl)piperidin-1-yl)-2-(methylsulfonyl)ethan-1-one] were, in that order, 0.0514 µM, 0.184 µM and 1.85 µM.
The matching figures for `Cc1cc(-c2[nH]c3ccc(C4CCN(CC5CN(Cc6ccccc6)CCO5)CC4)cc3c2C(C)C)cc(C)n1` (stereo not drawn) [Example 320, 4-benzyl-2-((4-(2-(2,6-dimethylpyridin-4-yl)-3-isopropyl-1H-indol-5-yl)piperidin-1-yl)methyl)morpholine]: 0.0182 µM, 0.0218 µM and 0.192 µM.
The like results for `Cc1cc(-c2[nH]c3ccc(C4CCNCC4)cc3c2C(C)C)c(N)c(C)n1` [Example 29, 4-(3-isopropyl-5-(piperidin-4-yl)-1H-indol-2-yl)-2,6-dimethylpyridin-3-amine] were, in that order, 0.0021 µM, 0.0188 µM and 0.264 µM.
`Cc1cc(-c2[nH]c3ccc(C4CCN(C(=O)c5cccn(C6CC6)c5=O)CC4)cc3c2C(C)C)cc(C)n1` [Example 123, 1-cyclopropyl-3-(4-(2-(2,6-dimethylpyridin-4-yl)-3-isopropyl-1H-indol-5-yl)piperidine-1-carbonyl)pyridin-2(1H)-one]: the concentration for half-maximal inhibition (IC50) against human TLR7 (setting [1]) was 0.0205 µM; at human TLR8 (setting [2]), 0.114 µM; at human TLR9 (setting [3]) it was 36.6 µM.
The like results for `CC(=O)N1CCC(c2ccc3[nH]c(-c4cc(C)nc(C5CC5)c4)c(C(C)C)c3c2)CC1` [Example 504, 1-(4-(2-(2-cyclopropyl-6-methylpyridin-4-yl)-3-isopropyl-1H-indol-5-yl)piperidin-1-yl)ethan-1-one] were, in that order, 0.0642 µM, 0.639 µM and 33.9 µM.
The like results for `Cc1cc(-c2[nH]c3ccc(C4CCNCC4)cc3c2C(C)C)c(F)cn1` [Example 16, 2-(5-fluoro-2-methylpyridin-4-yl)-3-isopropyl-5-(piperidin-4-yl)-1H-indole] were, in that order, 0.0015 µM, 0.0014 µM and 2.48 µM.
The like results for `Cc1cc(-c2[nH]c3ccc(C4CCN(C(C)C(=O)N(C)C)CC4)cc3c2CC(F)F)cc(C)n1` (stereo not drawn) [Example 493, 2-(4-(3-(2,2-difluoroethyl)-2-(2,6-dimethylpyridin-4-yl)-1H-indol-5-yl)piperidin-1-yl)-N,N-dimethylpropanamide] were, in that order, 0.0845 µM, 0.498 µM and 1.64 µM.
As for `CCc1c(-c2ccnc(N(C)C)c2)[nH]c2ccc(C3CCN(C4CCN(CC(C)C)CC4)CC3)cc12` [Example 767, 4-(3-ethyl-5-(1′-isobutyl-[1,4′-bipiperidin]-4-yl)-1H-indol-2-yl)-N,N-dimethylpyridin-2-amine], the IC50 was 3.75 µM on human TLR7 (setting [1]), 1.23 µM on human TLR8 (setting [2]) and 0.098 µM on human TLR9 (setting [3]).

One may read the IC50 as the midpoint of a concentration-inhibition curve.
